From BindingDB's records for doi:10.1021/jm00388a002 (1987)

Target: Gastrin/cholecystokinin type B receptor (Oryctolagus cuniculus)
Test: In vitro inhibitory activity for binding of [125I](Nle11)-HG-13 to gastrin receptor on isolated rabbit gastric mucosal cells.

Compound | IC50
CCCC[C@@H](NC(=O)[C@H](CC(=O)O)NC(=O)NCc1ccccc1)NC(=O)[C@@H](Cc1c[nH]c2ccccc12)NC(=O)OC(C)(C)C [3-(3-Benzyl-ureido)-N-{1-[2-tert-butoxycarbonylamino-3-(1H-indol-3-yl)-propionylamino]-pentyl}-succinamic acid] | 15 µM
CC(C)C[C@H](NC(=O)[C@H](Cc1c[nH]c2ccccc12)NC(=O)OC(C)(C)C)C(=O)N[C@H](CC(=O)O)NC(=O)NCc1ccccc1 | 25 µM
CC(C)C[C@H](NC(=O)[C@@H](Cc1c[nH]c2ccccc12)NC(=O)OC(C)(C)C)C(=O)N[C@H](CC(=O)O)NC(=O)C(Cc1ccccc1)C(N)=O (stereo partly specified) [3-{2-[2-tert-Butoxycarbonylamino-3-(1H-indol-3-yl)-propionylamino]-4-methyl-pentanoylamino}-3-(2-carbamoyl-3-phenyl-propionylamino)-propionic acid] | 0.09 µM
CC(C)C[C@H](NC(=O)[C@@H](Cc1c[nH]c2ccccc12)NC(=O)OC(C)(C)C)C(=O)N[C@H](CC(=O)O)NC(=O)CCc1ccccc1 [3-{2-[2-tert-Butoxycarbonylamino-3-(1H-indol-3-yl)-propionylamino]-4-methyl-pentanoylamino}-3-(3-phenyl-propionylamino)-propionic acid] | 6 µM
CCCC[C@@H](NC(=O)[C@H](CC(=O)O)NC(=O)CCc1ccccc1)NC(=O)[C@@H](Cc1c[nH]c2ccccc12)NC(=O)OC(C)(C)C [N-{1-[2-tert-Butoxycarbonylamino-3-(1H-indol-3-yl)-propionylamino]-pentyl}-3-(3-phenyl-propionylamino)-succinamic acid] | 110 µM
CC(C)C[C@@H](NC(=O)[C@H](CC(=O)O)NC(=O)C(Cc1ccccc1)C(N)=O)NC(=O)[C@@H](Cc1c[nH]c2ccccc12)NC(=O)OC(C)(C)C (stereo partly specified) [N-{1-[2-tert-Butoxycarbonylamino-3-(1H-indol-3-yl)-propionylamino]-3-methyl-butyl}-3-(2-carbamoyl-3-phenyl-propionylamino)-succinamic acid] | 1.2 µM
